Experimental data as given in PMC8466554, “Heteroaryl-Ethylenes as New Lead Compounds in the Fight against High Priority Bacterial Strains” (Antibiotics, 2021).
Where “and” joins values, the source holds several entries; their conditions need not be identical. Equal values may be shown once. Read-outs that look alike come from different tables or passages of the source.

Key:
S.aureus Mu50-VISA = assay: MIC and MBC microtiter plate assay; format: cell-based, Staphylococcus aureus
[1] = tested on: E. faecalis ATCC51299-VRE; assay: MIC and MBC microtiter plate assay, also with different inocula; format: cell-based
K. pneumoniae ATCC700603 = assay: MIC microtiter plate assay; format: cell-based, Klebsiella pneumoniae
A. baumannii ATCC17978 = assay: MIC and MBC microtiter plate assay, also with different inocula; format: cell-based, Acinetobacter baumannii; conditions: A. baumannii ATCC17978
[2] = tested on: K. pneumoniae ATCC BAA-2814; assay: MIC microtiter plate assay; format: cell-based, Klebsiella pneumoniae; conditions: K. pneumoniae ATCC BAA-2814 (MDR strain)
S.aureus ATCC12598-MSSA = assay: MIC and MBC microtiter plate assay, also with different inocula; format: cell-based, Staphylococcus aureus
P. aeruginosa ATCC27853 = assay: MIC microtiter plate assay; format: cell-based, Pseudomonas aeruginosa
[3] = tested on: Gram-positive and Gram-negative ATCC strains; assay: MIC and MBC, summary over Gram-positive and Gram-negative strains; format: cell-based; conditions: by MBC/MIC ratio
S.aureus ATCC29213-MSSA = assay: MIC and MBC microtiter plate assay; format: cell-based, Staphylococcus aureus
E. coli ATCC25922 = assay: MIC and MBC microtiter plate assay, also with different inocula; format: cell-based, Escherichia coli
CaCo-2 cells = assay: MTT cytotoxicity assay; format: cell-based, human; conditions: 24 h of incubation relative to untreated controls
Experimental: To evaluate the biological activity of the PBn series, compounds were screened for toxicity against the colon-rectal cancer cell line CaCo-2 (ATCC HTB-37). These human cancer cells were treated with solutions of the compounds at decreasing concentrations, starting from 100 μM up to 0.01 μM. The reference compound used for these assays was 5-Fluorouracil (5-Fu), a pyrimidine analogue belonging to the family of antimetabolite. […] Briefly, human colorectal adenocarcinoma cells (CaCo-2 HTB-37^TM Colorectal Adenocarcinoma Human, American Type Culture Collection, Manassas, VA, USA) were grown in Dulbecco’s MEM (DMEM) with 10% heat-inactivated fetal bovine serum, 2 mM L-Alanyl-L-Glutamine, penicillin-streptomycin (50 units-50 μg for mL) and incubated at 37 °C in a humidified atmosphere of 5% CO2, 95% air. CaCo-2 cells were plated in 96 well pates and incubated at 37 °C. The PBn series compounds and 5-FU were prepared as a 1 mM solution in 10 mL with 0.01% DMSO. Then, 24 h after plating, cells were treated with 20 μL of each solution. Untreated cells were used as controls. […] The results were read on a multiwell scanning spectrophotometer (AF2200 plate reader, Eppendorf, Milan, Italy), using a wavelength of 569 nm.

S.aureus USA300-CAMRSA = assay: MIC and MBC microtiter plate assay; format: cell-based, Staphylococcus aureus
[4] = tested on: E. faecalis ATCC29212-VSE; assay: MIC and MBC microtiter plate assay; format: cell-based
[5] = E. faecalis ATCC51299-VRE, value in brackets
[6] = S.aureus ATCC12598-MSSA, value in brackets

## Clc1ccc(Cl)c(-c2ccc(/C=C/c3cc[n+](-c4ncccn4)cc3)o2)c1.F[P-](F)(F)(F)(F)F [PB5]
S.aureus Mu50-VISA
  MBC: 4 mg/L
  MIC: 2 mg/L
S.aureus Mu50-VISA; value in brackets
  MBC: 7.40 µM
  MIC: 3.70 µM
[1]; E. faecalis ATCC51299-VRE
  MBC: 128 mg/L
  MIC: 4 mg/L
[1]; [5]
  MBC: 236.94 µM
  MIC: 7.40 µM
[1]; E. faecalis ATCC51299, inoculum 1.00101 (1 × 10^1 CFU/mL)
  MIC: 0.5 mg/L and 0.93 μM
[1]; E. faecalis ATCC51299, inoculum 1.00102 (1 × 10^2 CFU/mL)
  MIC: 1 mg/L and 1.85 μM
[1]; E. faecalis ATCC51299, inoculum 1.00103 (1 × 10^3 CFU/mL)
  MIC: 1 mg/L and 1.85 μM
[1]; E. faecalis ATCC51299, inoculum 1.00104 (1 × 10^4 CFU/mL)
  MIC: 1 mg/L and 1.85 μM
[1]; E. faecalis ATCC51299, inoculum 1.00105 (1 × 10^5 CFU/mL, standard)
  MIC: 4 mg/L and 7.40 μM
[1]; E. faecalis ATCC51299, inoculum 1.00106 (1 × 10^6 CFU/mL)
  MIC: 4 mg/L and 7.40 μM
[1]; E. faecalis ATCC51299, inoculum 1.00107 (1 × 10^7 CFU/mL)
  MIC: 4 mg/L and 7.40 μM
K. pneumoniae ATCC700603
  MIC: > 128 mg/L
K. pneumoniae ATCC700603; value in brackets
  MIC: > 236.94 µM
A. baumannii ATCC17978
  MIC: > 128 mg/L
A. baumannii ATCC17978; value in brackets
  MIC: > 236.94 µM
[2]
  MIC: > 128 mg/L
[2]; value in brackets
  MIC: > 236.94 µM
S.aureus ATCC12598-MSSA; S. aureus ATCC12598, inoculum 1.00101 (1 × 10^1 CFU/mL)
  MIC: 0.03 mg/L and 0.06 μM
S.aureus ATCC12598-MSSA; S. aureus ATCC12598, inoculum 1.00102 (1 × 10^2 CFU/mL)
  MIC: 0.03 mg/L and 0.06 μM
S.aureus ATCC12598-MSSA; S. aureus ATCC12598, inoculum 1.00103 (1 × 10^3 CFU/mL)
  MIC: 0.06 μM and 0.03 mg/L
S.aureus ATCC12598-MSSA; S. aureus ATCC12598, inoculum 1.00104 (1 × 10^4 CFU/mL)
  MIC: 0.06 mg/L and 0.12 μM
S.aureus ATCC12598-MSSA; S. aureus ATCC12598, inoculum 1.00105 (1 × 10^5 CFU/mL, standard)
  MIC: 4 mg/L and 7.40 μM
S.aureus ATCC12598-MSSA; S. aureus ATCC12598, inoculum 1.00106 (1 × 10^6 CFU/mL)
  MIC: 4 mg/L and 7.40 μM
S.aureus ATCC12598-MSSA; S. aureus ATCC12598, inoculum 1.00107 (1 × 10^7 CFU/mL)
  MIC: 8 mg/L and 14.81 μM
S.aureus ATCC12598-MSSA; S.aureus ATCC12598-MSSA
  MBC: 4 mg/L
  MIC: 4 mg/L
S.aureus ATCC12598-MSSA; [6]
  MBC: 7.40 µM
  MIC: 7.40 µM
P. aeruginosa ATCC27853
  MIC: > 128 mg/L
P. aeruginosa ATCC27853; value in brackets
  MIC: > 236.94 µM
[3]
  bactericidal/bacteriostatic activity: strain-dependent bactericidal/bacteriostatic activity
S.aureus ATCC29213-MSSA
  MBC: 4 mg/L
  MIC: 1 mg/L
S.aureus ATCC29213-MSSA; value in brackets
  MBC: 7.40 µM
  MIC: 1.85 µM
E. coli ATCC25922
  MIC: 32 mg/L
E. coli ATCC25922; value in brackets
  MIC: 59.24 µM
CaCo-2 cells
  IC50: 3.9 µM
S.aureus USA300-CAMRSA
  MBC: 4 mg/L
S.aureus USA300-CAMRSA; value in brackets
  MBC: 7.40 µM
  MIC: 0.93 µM
[4]
  MBC: 128 mg/L
  MIC: 4 mg/L
[4]; value in brackets
  MBC: 236.94 µM
  MIC: 7.40 µM

## C[n+]1ccc(/C=C/c2ccc(-c3cc(Cl)ccc3Cl)o2)cc1.F[P-](F)(F)(F)(F)F [PB6]
S.aureus Mu50-VISA
  MIC: 4 mg/L
S.aureus Mu50-VISA; value in brackets
  MIC: 8.73 µM
[1]; E. faecalis ATCC51299-VRE
  MIC: 32 mg/L
[1]; [5]
  MIC: 69.85 µM
K. pneumoniae ATCC700603
  MIC: > 128 mg/L
K. pneumoniae ATCC700603; value in brackets
  MIC: > 279.40 µM
A. baumannii ATCC17978
  MIC: 64 mg/L
[2]
  MIC: > 128 mg/L
[2]; value in brackets
  MIC: > 279.40 µM
S.aureus ATCC12598-MSSA; S.aureus ATCC12598-MSSA
  MIC: 8 mg/L
S.aureus ATCC12598-MSSA; [6]
  MIC: 17.46 µM
P. aeruginosa ATCC27853
  MIC: > 128 mg/L
P. aeruginosa ATCC27853; value in brackets
  MIC: > 279.40 µM
[3]
  bactericidal/bacteriostatic activity: strain-dependent bactericidal/bacteriostatic activity
S.aureus ATCC29213-MSSA
  MIC: 4 mg/L
S.aureus ATCC29213-MSSA; value in brackets
  MIC: 8.73 µM
E. coli ATCC25922
  MIC: > 128 mg/L
E. coli ATCC25922; value in brackets
  MIC: > 279.40 µM
CaCo-2 cells
  IC50: 6.79 µM and 6.8 µM
S.aureus USA300-CAMRSA
  MIC: 4 mg/L
S.aureus USA300-CAMRSA; value in brackets
  MIC: 8.73 µM
[4]
  MIC: 32 mg/L
[4]; value in brackets
  MIC: 69.85 µM
